Assay results reported in ChEMBL document CHEMBL1201862, “PubChem BioAssay data set” (2004).
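Briefly, cells in 96-well plates were exposed to five compound concentrations for 48 h, and endpoints were estimated by linear interpolation. Abbreviation: GI50, concentration required for 50% inhibition of growth.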 Active and inactive are the calls of the source. No stated cut-off is given here; in the data, active = GI50 up to about 1.1 µM and inactive = higher.

Key:
Assay in all cases: NCI anticancer screen, dose series, 48 h
[1] = system: A549
[2] = system: CAKI-1
[3] = system: EKVX
[4] = system: HCT-116
[5] = system: Hs-578T
[6] = system: KM12
[7] = system: M14
[8] = system: MCF7
[9] = system: MOLT-4
[10] = system: NCI-H226
[11] = system: OVCAR-5
[12] = system: OVCAR-8
[13] = system: RPMI-8226
[14] = system: SK-MEL-28
[15] = system: SW-620
[16] = system: T47D
[17] = system: TK-10
[18] = system: NCI-H522
[19] = system: SK-MEL-2
[20] = system: UACC-257

Measured: GI50

O=C(CC(=O)N(C(=O)/C=C\c1ccccc1)c1ccc(Cl)cc1)N1N=C(c2ccccc2)C(/N=N/c2cccc([N+](=O)[O-])c2)C1=O (configuration not stated)
inactive: [1] 5.05 µM | [2] 10.7 µM | [3] 16.9 µM | [4] 3.37 µM | [5] 18.4 µM | [6] 1.76 µM | [7] 7.08 µM | [8] 3.45 µM | [9] 2.56 µM | [10] 13.2 µM | [11] 48.9 µM | [12] 3.78 µM | [13] 3.35 µM | [14] 11.5 µM | [15] 2.32 µM | [16] 4.2 µM | [17] 7.89 µM

COC(=O)c1c(C)cccc1C1CN=NC12Cc1cc(C)cc(C)c1C2=O (configuration not stated)
inactive: [1] 37.1 µM | [2] 24.9 µM | [3] 39.2 µM | [4] 27.9 µM | [5] 73.1 µM | [6] 31.4 µM | [7] 46.1 µM | [8] 6.85 µM | [9] 32.1 µM | [10] 58.5 µM | [18] 9.46 µM | [11] 48 µM | [12] 54.1 µM | [14] 76.4 µM | [19] 27.7 µM | [15] 48.5 µM | [16] 30.2 µM | [17] 32.4 µM | [20] 22.9 µM

CC1(C)CC[C@]2(C(=O)O)CC[C@]3(C)C(=CC[C@@H]4[C@@]5(C)C[C@H](O)[C@H](O)[C@@](C)(CO)C5=CC[C@]43C)[C@@H]2C1
inactive: [1] 28.8 µM | [2] 55 µM | [3] 53.2 µM | [4] 32.5 µM | [5] 37.7 µM | [6] 21.4 µM | [7] > 100 µM | [8] 46.7 µM | [9] 35.6 µM | [18] 20.2 µM | [11] > 100 µM | [12] 37.2 µM | [13] 50.5 µM | [14] > 100 µM | [19] > 100 µM | [15] > 100 µM | [16] 35.8 µM | [17] > 100 µM | [20] > 100 µM

CCOc1cn(C2CC(O)C(CO)O2)c(=O)[nH]c1=O (configuration not stated)
inactive: [1] > 100 µM | [2] > 100 µM | [3] > 100 µM | [4] > 100 µM | [5] > 100 µM | [6] > 100 µM | [7] > 100 µM | [8] 45.9 µM | [9] > 100 µM | [10] > 100 µM | [11] > 100 µM | [13] > 100 µM | [14] > 100 µM | [19] > 100 µM | [15] > 100 µM | [16] > 100 µM | [17] > 100 µM | [20] > 100 µM

Cc1ccc(C(=O)OC(C)C)cc1/N=N/N(C)C
inactive: [1] > 100 µM | [2] 83 µM | [3] > 100 µM | [4] > 67.9 µM | [5] > 100 µM | [6] > 84.5 µM | [7] > 100 µM | [8] > 100 µM | [9] > 100 µM | [18] 31.1 µM | [11] > 100 µM | [12] > 100 µM | [13] > 100 µM | [14] > 100 µM | [19] > 100 µM | [15] > 100 µM | [16] 44.5 µM | [17] > 100 µM | [20] 27.1 µM

COc1cc(Nc2nc3cc(C(F)(F)F)ccc3nc2C(=O)O)cc(OC)c1OC
inactive: [1] 64.4 µM | [2] 30.7 µM | [3] 33.3 µM | [4] 32.7 µM | [5] 31.7 µM | [6] 41.5 µM | [7] 40.6 µM | [8] 66.5 µM | [9] 39.7 µM | [10] 32.9 µM | [18] 30.9 µM | [11] > 100 µM | [12] 43.8 µM | [14] 69.2 µM | [19] 19.1 µM | [15] 71.9 µM | [16] 22.5 µM | [17] 51.3 µM | [20] > 100 µM

COc1cc(Nc2c(C#N)[n+]([O-])c3ccccc3[n+]2[O-])cc(OC)c1OC
inactive: [1] 43.8 µM | [2] 38.1 µM | [3] 29 µM | [4] 16.4 µM | [5] > 100 µM | [6] 37.7 µM | [7] 15 µM | [8] 24.2 µM | [9] 42 µM | [18] 29.1 µM | [11] 22.3 µM | [12] 31.9 µM | [13] > 100 µM | [14] 19 µM | [19] 39.1 µM | [15] 29.9 µM | [16] 14.8 µM | [17] > 100 µM | [20] 27.4 µM

Cc1cc2c(c(=O)o1)C1=S(SC(c3ccccc3)=C1)S2 (configuration not stated)
inactive: [1] 33.7 µM | [4] 22.8 µM | [5] 41.2 µM | [6] 84.3 µM | [7] 45.5 µM | [8] 29.6 µM | [9] > 100 µM | [18] 37.6 µM | [11] 78.9 µM | [12] 54.7 µM | [13] 55.6 µM | [14] > 100 µM | [19] 66.4 µM | [15] > 100 µM | [16] 36.9 µM | [17] 32.2 µM | [20] > 100 µM

N=C1C(O)C2(I)c3ccccc3N3C(=N)C(O)C4c5ccccc5N1C4C32 (configuration not stated)
inactive: [1] 51.8 µM | [2] 93.5 µM | [3] > 100 µM | [4] 36.7 µM | [5] 61.8 µM | [6] 15.1 µM | [7] 59 µM | [8] 19.6 µM | [9] 27.5 µM | [18] 25.9 µM | [11] > 100 µM | [12] 33.5 µM | [13] 40.9 µM | [14] 90.6 µM | [19] > 100 µM | [15] 52.8 µM | [16] > 100 µM | [17] > 100 µM | [20] > 100 µM

CC1(C)C2CCC1(C)C(OC(=O)/C=C/C(=O)OC1CC3CCC1(C)C3(C)C)C2 (configuration not stated)
inactive: [1] > 100 µM | [2] > 100 µM | [3] > 100 µM | [4] 56.9 µM | [5] 63 µM | [6] > 100 µM | [7] 76.9 µM | [8] 19.3 µM | [9] 16.9 µM | [18] 41 µM | [11] > 100 µM | [12] > 100 µM | [14] 18.9 µM | [19] 61.7 µM | [15] 38.1 µM | [16] > 100 µM | [17] > 100 µM | [20] 31 µM

CC(=O)NC1(C)C(C)C2CC1C(C)C2(C)C (configuration not stated)
inactive: [1] > 100 µM | [2] > 100 µM | [3] > 100 µM | [4] > 100 µM | [5] > 100 µM | [6] > 100 µM | [7] > 100 µM | [8] > 100 µM | [9] > 100 µM | [10] > 100 µM | [18] > 100 µM | [11] > 100 µM | [12] > 100 µM | [14] > 100 µM | [15] > 100 µM | [16] > 100 µM | [17] > 100 µM | [20] > 100 µM
